Reference: article PMC3378808 (Biochimica et Biophysica Acta, 2012)

Assays:
[1] = tested on: TMD of diacylglycerol kinase (DAGK); type: cell-based; details: ToxR assay, Figure 3c
split luciferase = split luciferase (Photinus pyralis, UniProt P08659); test: Split luciferase false-positive control; type: biochemical; details: false positive evaluation
[2] = tested on: NO production (NF-κB downstream signaling); test: Nitric oxide; type: cell-based, human; details: 100 μM, EBV positive B 721 cells, 48 h
[3] = target: 12 representative kinases (AKT1, CAMK1, DDR2, GSK-3α, MAPK1, MET, PAK1, PDGFRB, PIM1, PKC-γ, PLK4, SRC); test: Kinase profiling; type: biochemical; details: 50 μM compound
LMP-1 TMD-5 = LMP-1 TMD-5 (Epstein-Barr virus, UniProt P03230); type: cell-based
[4] = tested on: B lymphoblastoid cell line 721; details: 100 μM, B 721 cells, 48 h, WST-1
CAMK1 = CAMK1 (Homo sapiens, UniProt Q14012); test: Kinase profiling; type: biochemical; details: 50 μM compound
CAMK1, sequence (Q14012 whole entry, species assumed): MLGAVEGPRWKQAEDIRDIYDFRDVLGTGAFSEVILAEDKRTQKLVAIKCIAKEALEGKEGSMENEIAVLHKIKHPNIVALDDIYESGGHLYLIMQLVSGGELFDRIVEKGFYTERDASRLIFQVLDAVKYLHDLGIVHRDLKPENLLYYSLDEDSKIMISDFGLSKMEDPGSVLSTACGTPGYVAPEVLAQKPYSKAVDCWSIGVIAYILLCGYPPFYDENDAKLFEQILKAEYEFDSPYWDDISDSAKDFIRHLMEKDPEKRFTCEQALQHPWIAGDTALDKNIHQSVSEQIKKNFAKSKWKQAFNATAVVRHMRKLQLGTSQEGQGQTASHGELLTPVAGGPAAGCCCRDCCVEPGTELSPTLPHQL

TMD-5 peptide = TMD-5 peptide (Epstein-Barr virus, UniProt P03230); test: NMR titration; type: binding; details: 500 MHz, POPC/DHPC bicelles, 37 °C
PDGFRB = PDGFRB (Homo sapiens, UniProt P09619); test: Kinase profiling; type: biochemical; details: 50 μM compound
PDGFRB, sequence (P09619 33-1106, species assumed): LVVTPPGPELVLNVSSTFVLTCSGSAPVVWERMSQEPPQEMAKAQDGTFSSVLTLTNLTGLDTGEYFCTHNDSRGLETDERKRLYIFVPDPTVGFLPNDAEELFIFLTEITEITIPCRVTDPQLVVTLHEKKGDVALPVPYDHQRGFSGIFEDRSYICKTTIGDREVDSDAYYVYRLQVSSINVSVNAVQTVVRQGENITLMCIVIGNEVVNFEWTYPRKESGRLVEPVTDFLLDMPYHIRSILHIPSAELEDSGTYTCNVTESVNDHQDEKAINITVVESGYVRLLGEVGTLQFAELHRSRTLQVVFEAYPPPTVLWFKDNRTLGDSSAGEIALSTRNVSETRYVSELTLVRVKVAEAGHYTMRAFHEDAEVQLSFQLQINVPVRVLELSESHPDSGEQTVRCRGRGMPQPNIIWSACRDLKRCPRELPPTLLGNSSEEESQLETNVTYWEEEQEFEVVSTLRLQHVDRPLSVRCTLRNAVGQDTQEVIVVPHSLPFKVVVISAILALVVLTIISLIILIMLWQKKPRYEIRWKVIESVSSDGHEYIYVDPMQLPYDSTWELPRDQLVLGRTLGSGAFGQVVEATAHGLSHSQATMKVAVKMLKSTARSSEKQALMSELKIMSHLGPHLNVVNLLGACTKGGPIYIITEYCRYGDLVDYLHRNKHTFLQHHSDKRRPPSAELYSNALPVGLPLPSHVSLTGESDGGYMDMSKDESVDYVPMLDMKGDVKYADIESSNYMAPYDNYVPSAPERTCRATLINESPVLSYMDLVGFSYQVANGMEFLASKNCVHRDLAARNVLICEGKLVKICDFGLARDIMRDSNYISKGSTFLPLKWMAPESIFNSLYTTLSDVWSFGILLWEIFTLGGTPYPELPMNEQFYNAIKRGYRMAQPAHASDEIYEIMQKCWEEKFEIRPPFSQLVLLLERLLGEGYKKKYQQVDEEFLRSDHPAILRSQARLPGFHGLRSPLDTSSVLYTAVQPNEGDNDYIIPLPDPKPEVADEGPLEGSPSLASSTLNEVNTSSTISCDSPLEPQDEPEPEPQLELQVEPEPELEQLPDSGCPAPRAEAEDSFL

[5] = target: coumarin labeled TMD-5 peptide (LMP-1) (Epstein-Barr virus, UniProt P03230); test: Coumarin fluorescence dequenching assay; type: binding
TMD of integrin αIIb = target: T1, TMD of integrin αIIb (Homo sapiens, UniProt P08514); test: ToxR reporter assay of integrin αIIb TMD oligomerization; type: cell-based; details: Figure 3c
T1 sequence (P08514 994-1019 limits assumed): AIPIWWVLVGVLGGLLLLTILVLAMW

TMD-5 trimer = TMD-5 trimer (Epstein-Barr virus, UniProt P03230); test: Bis-Tris SDS-PAGE of TMD-5 after NMR titration; type: binding; details: compound to TMD-5 ratio 4:1
[6] = tested on: full-length LMP-1-mediated NF-κB activity; test: NF-κB luciferase reporter assay in EBV positive B 721 cells; type: cell-based; details: Homo sapiens, B721, 48 h, read-out: IC50 of NF-κB activation
Bis-Tris SDS-PAGE = target: the molecule itself; test: Bis-Tris SDS-PAGE

split luciferase, sequence (P08659 2-416 limits assumed): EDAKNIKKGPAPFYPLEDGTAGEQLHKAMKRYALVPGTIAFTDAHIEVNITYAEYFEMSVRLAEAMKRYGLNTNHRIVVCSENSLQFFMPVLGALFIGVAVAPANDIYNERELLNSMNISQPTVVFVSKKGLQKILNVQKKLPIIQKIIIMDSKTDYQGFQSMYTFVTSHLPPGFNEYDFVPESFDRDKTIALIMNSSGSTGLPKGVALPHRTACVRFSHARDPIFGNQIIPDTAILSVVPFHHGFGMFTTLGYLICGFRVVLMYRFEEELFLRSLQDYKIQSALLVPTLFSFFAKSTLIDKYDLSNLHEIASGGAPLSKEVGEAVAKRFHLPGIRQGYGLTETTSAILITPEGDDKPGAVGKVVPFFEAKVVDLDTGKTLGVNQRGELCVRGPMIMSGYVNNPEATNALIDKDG

Row | Molecule | inhibition of DAGK TMD oligomerization [1] | inhibition of luciferase control (split luciferase) | effect on NO over-production [2] | kinase activity retained (ten out of twelve kinases) [3] [%] | IC50 (LMP-1 TMD-5; read-out: IC50 to disrupt TMD-5 oligomerization in whole cells, ToxR assay, dose-dependent titration) [µM] | cytotoxicity / growth inhibition [4] | inhibition of CAMK1 (CAMK1) | chemical shift changes of TMD-5 on titration (TMD-5 peptide) | inhibition of PDGFRB (PDGFRB) | coumarin labeled TMD-5 fluorescence increase without detergent ([5]; in the absence of C14 betaine detergent) | inhibition of integrin αIIb TMD oligomerization (TMD of integrin αIIb) | disruption of TMD-5 trimer to monomer on SDS-PAGE (TMD-5 trimer) | inhibition of TMD-5 oligomerization (ToxR assay), in words (LMP-1 TMD-5; Figure 3e/3f) | disruption of TMD-5 association (coumarin fluorescence dequenching), in words ([5]; 100 nM coumarin-labeled TMD-5, 150 μM C14 betaine, pH 7.4) | IC50 [6] [µM] | stoichiometry N (Bis-Tris SDS-PAGE)
1 | N=C(N)c1ccc(C=Cc2ccc(C(=N)N)cc2O)cc1.O=S(=O)(O)CCO.O=S(=O)(O)CCO [Compound 1] | did not inhibit DAGK TMD oligomerization | did not inhibit luciferase control | suppress NO over-production | > 95 | 90 ± 10.5 | No apparent growth inhibition | approximately 20% | induced chemical shift changes at a number of sites including the deeply buried Asp 150 | approximately 20% | failed to cause coumarin labeled TMD-5 fluorescence increase | No apparent oligomerization inhibition | disrupts the TMD-5 trimer |  |  |  | 
2 | C(=Cc1ccc(-c2nc(-c3ccccc3)nc(-c3ccccc3)n2)cc1)c1ccc(-c2nc(-c3ccccc3)nc(-c3ccccc3)n2)cc1 [Compound 6, 2,2'-(1,2-ethenediyldi-4,1-phenylene)bis(4,6-diphenyl-1,3,5-triazine), reference compound] |  |  | no significant inhibition activity |  |  |  |  |  |  |  |  |  | did not inhibit TMD-5 oligomerization | did not inhibit TMD-5 oligomerization | 180 ± 27.5 | 
3 | GGPGWQLLAFFLAFFLDLILLIIALYLGPGG [TMD-5 peptide (GGPG-WQLLAFFLAFFLDLILLIIALYL-GPGG) derived from LMP-1] |  |  |  |  |  |  |  |  |  |  |  |  |  |  |  | 3
